In patent US20020052503A1, “Substituted benzolactam compounds as substance p antagonists” (priority 1995, published 2002):

Target: T1, Ca^2+ channel in rat heart membrane preparation (Rattus norvegicus, UniProt P22002)
T1 construct: from tissue; host or cells: rat heart membrane preparation
Assay: verapamil binding study ([^3H]desmethoxyverapamil)
Conditions: read-out: verapamil binding study (Ca^2+ channel binding affinity)
Procedure: The adverse effect on Ca^2+ channel binding affinity is determined by verapamil binding study in rat heart membrane preparation. More specifically, verapamil binding study is performed as previously described by Reynolds et al., (J. Pharmacol. Exp. Ther. 237, 731, 1986). Briefly, incubations are initiated by the addition of tissue to tubes containing 0.25 nM [^3H]desmethoxyverapamil and various concentrations of compounds (total volume; 1 ml). Nonspecific binding is defined as radioligand binding remaining in the presence of 3-10 μM methoxyverapamil.

T1 sequence (P22002 whole entry, other chains not shown): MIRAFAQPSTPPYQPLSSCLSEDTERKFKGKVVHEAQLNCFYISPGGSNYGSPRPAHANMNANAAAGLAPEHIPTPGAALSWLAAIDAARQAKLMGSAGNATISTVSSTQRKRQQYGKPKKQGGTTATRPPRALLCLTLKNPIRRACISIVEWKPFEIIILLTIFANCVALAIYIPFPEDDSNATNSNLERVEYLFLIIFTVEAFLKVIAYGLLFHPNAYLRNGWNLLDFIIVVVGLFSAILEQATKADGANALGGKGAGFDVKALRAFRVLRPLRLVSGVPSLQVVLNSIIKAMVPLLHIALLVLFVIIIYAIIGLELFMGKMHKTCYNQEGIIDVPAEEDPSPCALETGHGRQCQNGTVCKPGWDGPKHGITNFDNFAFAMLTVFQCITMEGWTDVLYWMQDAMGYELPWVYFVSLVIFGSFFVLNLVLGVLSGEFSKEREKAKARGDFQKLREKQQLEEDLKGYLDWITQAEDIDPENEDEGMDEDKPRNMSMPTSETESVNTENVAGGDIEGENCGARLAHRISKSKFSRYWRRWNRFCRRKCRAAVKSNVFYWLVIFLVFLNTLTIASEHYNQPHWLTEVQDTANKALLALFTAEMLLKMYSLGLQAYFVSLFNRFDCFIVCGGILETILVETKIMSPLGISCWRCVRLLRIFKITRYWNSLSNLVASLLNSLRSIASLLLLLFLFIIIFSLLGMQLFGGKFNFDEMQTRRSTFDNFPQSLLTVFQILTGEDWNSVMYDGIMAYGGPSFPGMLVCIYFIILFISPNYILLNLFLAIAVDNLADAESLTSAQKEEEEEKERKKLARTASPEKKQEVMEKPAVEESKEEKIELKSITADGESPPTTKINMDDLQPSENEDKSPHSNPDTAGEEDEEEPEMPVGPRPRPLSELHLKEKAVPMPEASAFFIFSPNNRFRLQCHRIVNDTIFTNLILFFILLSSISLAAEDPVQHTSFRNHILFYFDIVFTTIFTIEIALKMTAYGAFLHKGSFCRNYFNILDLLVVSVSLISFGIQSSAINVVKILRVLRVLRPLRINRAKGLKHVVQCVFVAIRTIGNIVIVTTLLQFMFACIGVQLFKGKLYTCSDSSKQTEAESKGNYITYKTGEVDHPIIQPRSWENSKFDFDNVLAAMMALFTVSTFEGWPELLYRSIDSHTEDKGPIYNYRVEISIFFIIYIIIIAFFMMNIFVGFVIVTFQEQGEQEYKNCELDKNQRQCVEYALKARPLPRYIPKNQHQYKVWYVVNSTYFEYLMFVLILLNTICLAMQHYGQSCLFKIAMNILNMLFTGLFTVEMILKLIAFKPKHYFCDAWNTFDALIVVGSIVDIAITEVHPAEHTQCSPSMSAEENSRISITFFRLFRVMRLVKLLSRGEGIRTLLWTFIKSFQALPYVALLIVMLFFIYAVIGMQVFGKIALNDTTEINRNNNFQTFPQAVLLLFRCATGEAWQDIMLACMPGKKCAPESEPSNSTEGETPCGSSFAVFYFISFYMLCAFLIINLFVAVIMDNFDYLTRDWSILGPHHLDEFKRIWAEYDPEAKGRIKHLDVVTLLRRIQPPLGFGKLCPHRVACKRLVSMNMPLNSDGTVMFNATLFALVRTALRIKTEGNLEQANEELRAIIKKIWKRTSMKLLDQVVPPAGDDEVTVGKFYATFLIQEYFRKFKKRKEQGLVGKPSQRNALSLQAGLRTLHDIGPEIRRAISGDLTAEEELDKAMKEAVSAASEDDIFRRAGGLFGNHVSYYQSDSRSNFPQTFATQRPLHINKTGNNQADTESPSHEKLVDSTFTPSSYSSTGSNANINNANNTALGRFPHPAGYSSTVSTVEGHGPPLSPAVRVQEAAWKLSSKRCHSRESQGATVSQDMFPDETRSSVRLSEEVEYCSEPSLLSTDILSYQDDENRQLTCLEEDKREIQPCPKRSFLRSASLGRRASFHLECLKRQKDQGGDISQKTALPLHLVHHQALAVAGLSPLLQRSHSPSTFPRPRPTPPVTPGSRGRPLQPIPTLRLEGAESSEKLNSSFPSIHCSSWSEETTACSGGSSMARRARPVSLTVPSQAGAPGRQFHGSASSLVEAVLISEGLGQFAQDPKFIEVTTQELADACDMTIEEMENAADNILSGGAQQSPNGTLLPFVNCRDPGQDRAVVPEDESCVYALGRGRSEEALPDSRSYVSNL
T1 sequence (P54290 25-944 partner limits assumed, other chains not shown): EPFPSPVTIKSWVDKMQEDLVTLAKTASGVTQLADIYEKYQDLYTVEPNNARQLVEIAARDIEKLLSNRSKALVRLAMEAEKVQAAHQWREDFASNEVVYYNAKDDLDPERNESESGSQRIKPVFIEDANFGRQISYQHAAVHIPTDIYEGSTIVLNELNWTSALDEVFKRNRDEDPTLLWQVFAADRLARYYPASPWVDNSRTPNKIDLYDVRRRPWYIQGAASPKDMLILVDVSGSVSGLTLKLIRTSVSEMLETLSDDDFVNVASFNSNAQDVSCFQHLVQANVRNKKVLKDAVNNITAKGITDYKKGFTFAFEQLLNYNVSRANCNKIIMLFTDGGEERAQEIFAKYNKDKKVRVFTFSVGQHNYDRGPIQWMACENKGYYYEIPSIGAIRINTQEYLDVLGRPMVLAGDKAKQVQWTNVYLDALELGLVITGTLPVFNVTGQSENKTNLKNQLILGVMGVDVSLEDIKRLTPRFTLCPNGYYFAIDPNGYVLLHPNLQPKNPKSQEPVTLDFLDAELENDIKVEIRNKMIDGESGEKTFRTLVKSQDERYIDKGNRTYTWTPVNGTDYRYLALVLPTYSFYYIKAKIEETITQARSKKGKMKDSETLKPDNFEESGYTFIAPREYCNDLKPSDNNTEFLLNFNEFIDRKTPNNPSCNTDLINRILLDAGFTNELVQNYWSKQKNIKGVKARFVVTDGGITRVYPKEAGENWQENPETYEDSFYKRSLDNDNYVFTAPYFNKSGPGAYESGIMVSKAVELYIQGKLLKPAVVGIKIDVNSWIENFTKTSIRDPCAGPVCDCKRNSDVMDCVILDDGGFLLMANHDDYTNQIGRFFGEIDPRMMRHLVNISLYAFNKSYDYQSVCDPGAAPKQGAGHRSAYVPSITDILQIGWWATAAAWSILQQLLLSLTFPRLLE
T1 sequence (P54290 945-1091 partner limits assumed, other chains not shown): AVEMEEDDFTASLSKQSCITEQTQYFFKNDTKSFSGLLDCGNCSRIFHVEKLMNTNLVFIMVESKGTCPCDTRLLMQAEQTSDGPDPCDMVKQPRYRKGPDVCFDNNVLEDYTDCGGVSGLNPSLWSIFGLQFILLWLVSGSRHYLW

IC50 [nM]	SMILES
> 3000	COc1cc2c(cc1CN[C@H]1CCCN[C@H]1c1ccccc1)N(C)C(=O)CC2.Cl.Cl [Compound 21, (2S,3S)-3-(6-Methoxy-1-methyl-2-oxo-1,2,3,4-tetrahydroquinolin-7-yl)methylamino-2-phenylpiperidine dihydrochloride]

Test system: not given
Assay: not given
Conditions: not given

SMILES	melting point [°C]
COc1cc2c(cc1CN[C@H]1CCCN[C@H]1c1ccccc1)CCC(=O)N2C.Cl.Cl	243 to 244
COc1cc2ccc(=O)n(C)c2cc1CN[C@H]1CCCN[C@H]1c1ccccc1.Cl.Cl	260 to 263
COc1cc2c(cc1CN[C@H]1CCCN[C@H]1c1ccccc1)C(C)(C)C(=S)N2C.Cl.Cl	234 to 236
COc1cc2c(cc1CN[C@H]1CCCN[C@H]1c1ccccc1)N(C)C(=O)CCC2.Cl.Cl	236 to 238
COc1cc2c(cc1CN[C@H]1C3CCN(CC3)[C@H]1C(c1ccccc1)c1ccccc1)N(C)C(=O)CC2	136 to 139
COc1cc2c(cc1CN[C@H]1CCCN[C@H]1c1ccccc1)C(C(F)(F)F)CC(=O)N2C.Cl.Cl (stereo partly drawn)	225 to 256
CN1C(=O)CCc2cc(OC(F)F)c(CN[C@H]3CCCN[C@H]3c3ccccc3)cc21.Cl.Cl	238 to 240

The remaining lines, values ahead:

melting point [°C]	SMILES
257 to 260	COc1cc2c(cc1CN[C@H]1CCCN[C@H]1c1ccccc1)N(C(C)C)C(=O)CC2.Cl.Cl
235 to 237	COc1cc2c(cc1CN[C@H]1CCCN[C@H]1c1ccccc1)N(C)C(=O)OC2.Cl.Cl
252 to 254	COc1cc2c(cc1CN[C@H]1CCCN[C@H]1c1ccccc1)N(C)C(=O)SC2.Cl.Cl
219 to 221	COc1cc2c(cc1CN[C@H]1CCCN[C@H]1c1ccccc1)CCC(=S)N2C.Cl.Cl
239 to 240	CN1C(=O)CCc2cc(OCC(F)(F)F)c(CN[C@H]3CCCN[C@H]3c3ccccc3)cc21.Cl.Cl
265 to 268	COc1cc2c(cc1CN[C@H]1CCCN[C@H]1c1ccccc1)N(C)C(=O)CC2.Cl.Cl [Compound 21, (2S,3S)-3-(6-Methoxy-1-methyl-2-oxo-1,2,3,4-tetrahydroquinolin-7-yl)methylamino-2-phenylpiperidine dihydrochloride]
125 to 128	COc1cc2ccc(=O)n(C)c2cc1CN[C@H]1C2CCN(CC2)[C@H]1C(c1ccccc1)c1ccccc1
245 to 246	COc1cc2c(cc1CN[C@H]1CCCN[C@H]1c1ccccc1)N(C)C(=S)CC2.Cl.Cl

Target: T2, substance P receptor sites in human IM-9 cells (Homo sapiens, UniProt P25103)
T2 construct: endogenous in cells; host or cells: human IM-9 cells (whole cells)
Assay: IM-9 binding assay (inhibition of [^3H]SP binding)
Conditions: [^3H]SP binding to human IM-9 cells
Procedure: The activity of the compounds of the present invention, as substance P antagonists, is determined by their ability to inhibit the binding of substance P at its 30 receptor sites in CHO-cells which reveal NK1 receptor or IM-9 cells employing radioactive ligands. The substance P antagonist activity of the herein described compounds is evaluated by using the standard assay procedure described by D. G. Payan et al., as reported in the The Journal of Immunology . 133, 3260 (1984). This method essentially involves determining the concentration of the individual compound required to reduce by 50% the amount of radiolabelled substance P ligands at their receptor sites in said isolated cow tissues or IM-9 cells, thereby affording characteristic IC50 values for each compound tested. More specifically, inhibition of [^3H]SP binding to human IM-9 cells by compounds are determined in assay buffer (50 mM Tris-HCl (pH 7.4), 1 mM MnCl2, 0.02% bovine serum albumin, bacitracin (40 μg/ml), leupeptin (4 μg/ml), chymostatin (2 μg/ml) and phosphoramidon (30 μg/ml)). […] Nonspecific binding is defined as the radioactivity remaining in the presence of 1 μM SP. The filters are placed into tubes and counted using liquid scintillation counter.

T2 sequence (P25103 whole entry): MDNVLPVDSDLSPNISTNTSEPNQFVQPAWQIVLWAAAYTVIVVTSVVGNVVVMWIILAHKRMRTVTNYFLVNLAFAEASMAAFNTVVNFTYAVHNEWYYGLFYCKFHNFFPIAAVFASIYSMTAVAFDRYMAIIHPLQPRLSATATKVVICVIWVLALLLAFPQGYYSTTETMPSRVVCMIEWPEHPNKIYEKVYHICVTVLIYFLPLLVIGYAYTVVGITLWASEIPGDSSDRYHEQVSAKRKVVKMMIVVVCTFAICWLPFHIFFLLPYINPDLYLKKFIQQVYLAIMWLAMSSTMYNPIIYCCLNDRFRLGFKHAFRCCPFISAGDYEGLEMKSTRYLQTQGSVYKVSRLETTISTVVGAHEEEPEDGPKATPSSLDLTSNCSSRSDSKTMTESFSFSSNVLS

IC50 [nM]	SMILES
< 0.1	COc1cc2c(cc1CN[C@H]1CCCN[C@H]1c1ccccc1)N(C)C(=O)CC2.Cl.Cl [Compound 21, (2S,3S)-3-(6-Methoxy-1-methyl-2-oxo-1,2,3,4-tetrahydroquinolin-7-yl)methylamino-2-phenylpiperidine dihydrochloride]

Test system: [Sar^9, Met(O2)^11]substance P-induced hind paw tapping in gerbils
Assay: [Sar^9, Met(O2)^11]substance P-induced tapping test
Format: in vivo, gerbil
Conditions: Meriones unguiculatus, % inhibition at 0.3 mg/kg scoring
Procedure: The activity of the compounds of this invention against CNS disorder is determined by [Sar^9, Met(O2)^11]substance P-induced tapping test in gerbils. More specifically, gerbils are lightly anesthetized with ether and the skull surface is exposed. [Sar^9, Met(O2)^11]substance P or vehicle (5 μl) are administered directly into the lateral ventricles via a 25 gauge needle inserted 3.5 mm below lambda. Following injection, gerbils are placed in 2 l beaker individually and monitored for repetitive hind paw tapping. Some compounds prepared in the following Examples were tested in accordance with these testing methods.

SMILES	inhibition at 0.3 mg/kg [%]
COc1cc2c(cc1CN[C@H]1CCCN[C@H]1c1ccccc1)N(C)C(=O)CC2.Cl.Cl [Compound 21, (2S,3S)-3-(6-Methoxy-1-methyl-2-oxo-1,2,3,4-tetrahydroquinolin-7-yl)methylamino-2-phenylpiperidine dihydrochloride]	52
